Tested on: urinary phosphate
Test: In vivo phosphate binding: urinary phosphate levels in rats fed test compound in diet
Design: species or system Sprague Dawley (SD) rats
Conditions: SD rats, urine days 5 and 6, cellulose control
Method: House male Sprague Dawley (SD) rats were used for the experiments. The rats were placed singly in wire-bottom cages, fed with Purina 5002 diet, and allowed to acclimate for at least 5 days prior to experimental use.
To establish baseline phosphorus excretion, the rats were placed in metabolic cages for 48 hours. Their urine was collected and its phosphorus content analyzed with a Hitachi analyzer to determine phosphorus excretion in mg/day. Any rats with outlying values were excluded; and the remainder of the rats was distributed into groups.
Purina 5002 was used as the standard diet. The compound being tested was mixed with Purina 5002 to result in a final concentration by weight as noted in the table. Cellulose at 0.5% by weight was used as a negative control. For each rat, 200 g of diet was prepared.
Each rat was weighed and placed on the standard diet. After 4 days the standard diet was replaced with the treatment diet (or control diet for the control group). On days 5 and 6, urine samples from the rats at 24 hours (+/−30 minutes) were collected and analyzed. The test rats were again weighed, and any weight loss or gain was calculated. Any remaining food was also weighed to calculate the amount of food consumed per day. A change in phosphorus excretion relative to baseline and cellulose negative control was calculated using Excel program.

SMILES | % Urinary Phosphate Relative to that of Control Animals (2.38 % of diet) | % Urinary Phosphate Relative to that of Control Animals (0.20 % of diet) | % Urinary Phosphate Relative to that of Control Animals (0.25 % of diet) | % Urinary Phosphate Relative to that of Control Animals (0.30 % of diet) | % Urinary Phosphate Relative to that of Control Animals (0.40 % of diet) | % Urinary Phosphate Relative to that of Control Animals (1.00 % of diet)
[Cl-].[Cl-].[Mg+2] [MgCl2] | 57.0% | – | – | – | – | –
[Mg+2].[O-2] [MgO] | – | 61.6% | 69.3% | 54.8% | 26.1% | 3.6%

Reference: US20090162314A1, “Magnesium-Containing Polymers for the Treatment of Hyperphosphatemia” (priority 2005, published 2009)
